The values that follow come from US20230302131A1, “MPC INHIBITION FOR PRODUCING T-CELLS WITH A MEMORY PHENOTYPE” (UNIVERSITÉ DE LAUSANNE, priority 2020, published 2023).

One assay concerns OT1 CD8 T cells. Description: In vitro activation of OT1 splenocytes with N4 peptide and IL-2, CD62L by flow cytometry. It is filed as cell-based, mouse. The method, then:
To evaluate the effects of MPC inhibition on T cell differentiation, OT1 splenocytes were cultured in the presence of 1 μg/ml ovalbumin-derived N4 (SIINFEKL) peptide, 100 IU/ml recombinant human IL-2 (rhIL-2) and the MPC inhibitor (MPCi) UK5099 at 75 μM or control DMSO for 3 days. The inhibitor or DMSO was then washed away and the cells were cultured for 4 more days in the presence of 100 IU/ml IL-2 and 10 ng/ml rhIL-7 (FIG. 1A). […] Thus, the increase in the memory markers upon MPCi in vitro treatment occurs at the transcriptional level.
OT1 splenocytes were cultured for 3 days at a concentration of 10^6 cells per mL in RPMI medium (Gibco 61870-01) supplemented with 10% FBS, (Gibco 10270-106), 1% Penicillin/Streptomycin (Gibco 15070-063), 50 μM β-mercaptoethanol, 1% HEPES (Gibco 15630-080), 1× Non-essential amino acids (Gibco 11140-035), 1% L-glutamine (Gibco 25030-081), 1 mM Sodium Pyruvate (Gibco 11360-039). Cells were additionally supplemented with hIL-2 100 U/ml (Glaxo-IMB), ovalbumin N4 peptide (SIINFEKL) 1 μg/ml and either with 75 μM UK5099 (Sigma Aldrich) or with their solvent DMSO as a control. At day 3, splenocytes were collected, washed and split, and cells were cultured for 4 additional days with 100 U/ml hIL-2 and hIL-7 (Peprotech 200-07) supplemented either with 75 μM UK5099 (Sigma Aldrich) or DMSO. […]
(Flow cytometry measures light scatter and fluorescence of single cells or particles in a stream.)

The next assay deals with adult human T cells. As to the kind of experiment: Mitochondrial staining (MitoGreen, TMRM) of adult human T cells. It is filed as cell-based. As to conditions: day 9; 25 μM; fold change compared to DMSO. The method, then: FIG. 7: MPC inhibition during the activation and culture of adult human T cells induces a memory phenotype. (A) Experimental design. PBMCs were isolated from adult healthy volunteers and activated with anti-CD3/CD28 beads in the presence of DMSO or UK5099 (25 μM). Beads were removed at day 5 and T cell phenotype was analysed at day 9. (B) Percentage of CD8 T cells expressing the memory marker CD62L. (C) The mean fluorescent intensity of CD62L in the respective positive population. (D) Percentage of CD8 T cells expressing markers that allows their identification as stem cell memory T cells (TSCM). (E-F) Mitochonrial mass (identified by MitoGreen staining, E) and mitochondrial membrane potential (TMRM, F), measured by flow cytometry and expressed as fold change as compared to DMSO. (G) Mitochondrial membrane potential normalized for the mitochondrial mass, expressed as the ratio of […], fold change as compared to DMSO. Pooled data from 2 independant experiments. ns: non-significant, *p<0.05, **[…], ***p<0.001. Data represents mean±s.e.m.
Heparinised blood was diluted with PBS and pipetted on top of Ficoll-paque (LymphoPrep). After centrifugation at 1800 rpm for 20 minutes at room temperature, the layer of cells at the intersection, containing the PBMCs was removed, washed and resuspended at 5×10^5 cells/ml of RPMI medium containing 8% human serum (AB serum), antibiotics, 2 mM L-Glutamine, 1% non-essential amino acids, 1 mM sodium pyruvate and 50 μM β-mercaptoethanol (all Gibco). Cells were activated with Human T-activator CD3/CD28 Dynabeads at a 1 bead/cell ratio with 150 IU/ml human recombinant IL2 and DMSO or 25 μM UK5099. Throughout the culture, cells were regularly split when necessary and beads were removed at day 5. At day 9, a fraction of the cells was stained with antibodies for flow cytometry analysis or for mitochondrial analysis.
2×10^5 cells were stained with 25 nM TMRM and 50 nM MitoGreen (Molecular Probes, Invitrogen) for 30 minutes in RPMI with 5% FCS at 37° C. […]

SMILES strings stand for the structures.

`N#CC(=Cc1cn(-c2ccccc2)c2ccccc12)C(=O)O` [UK5099, 2-cyano-3-(1-phenyl-1H-indol-3-yl)-2-propenoic acid]: the “surface expression of the central memory marker CD62L” value in the assay on OT1 CD8 T cells (75 μM d0-d3, then washed away, flow cytometry day 7, compared to DMSO) is listed as “strong increase”. Moreover, the “surface CD62L expression at day 7, continued treatment” value in the assay with OT1 CD8 T cells (MPCi treatment continued between d3 and d7) is on record as “even more pronounced than a d0-d3 treatment only”. In the assay on adult human T cells, the “mitochondrial membrane potential (TMRM)” value is “significantly increased”, the “mitochondrial membrane potential normalized for the mitochondrial mass” value is on record as “more polarised mitochondria” and the “total mitochondrial mass (MitoGreen)” value was “did not impact”.
